Results reported in PubChem BioAssay AID248 (DTP/NCI, 2004).
Several values for one entry are separate records, joined by “and”; a condition that tells them apart may be missing. Identical values can stand only once. Toxic doses and inconclusive results are not listed. Rule as the data show it: active = T/C of 150% or more; inactive = T/C below 125%.

Test system: L1210 leukemia ip in BDF1 mice, survival T/C
Assay: NCI In Vivo Anticancer Drug Screen. Data for tumor model L1210 Leukemia (intraperitoneal) in B6D2F1 (BDF1) mice
Settings: endpoint: mean survival time, higher = longer survival
In short: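 In this screen, tumor-bearing mice given compound are compared to those given vehicle, and their survival values are reported as a treated-to-control quotient.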

[1] = dose: 100.0 mg/kg/injection, schedule: Q01DX001 (ip), vehicle: saline
[2] = dose: 200.0 mg/kg/injection, schedule: Q01DX001 (ip), vehicle: saline
[3] = dose: 400.0 mg/kg/injection, schedule: Q01DX001 (ip), vehicle: saline
[4] = dose: 25.0 mg/kg/injection, schedule: Q01DX009 (ip), vehicle: saline
[5] = dose: 50.0 mg/kg/injection, schedule: Q01DX009 (ip), vehicle: saline
[6] = dose: 100.0 mg/kg/injection, schedule: Q01DX009 (ip), vehicle: saline
[7] = dose: 12.5 mg/kg/injection, schedule: Q04DX003 (ip), vehicle: saline
[8] = dose: 25.0 mg/kg/injection, schedule: Q04DX003 (ip), vehicle: saline
[9] = dose: 50.0 mg/kg/injection, schedule: Q04DX003 (ip), vehicle: saline
[10] = dose: 100.0 mg/kg/injection, schedule: Q04DX003 (ip), vehicle: saline
[11] = dose: 200.0 mg/kg/injection, schedule: Q04DX003 (ip), vehicle: saline
[12] = dose: 100.0 mg/kg/injection, schedule: Q01DX001 (ip), vehicle: carboxymethylcellulose (CMC)
[13] = dose: 50.0 mg/kg/injection, schedule: Q01DX001 (ip), vehicle: carboxymethylcellulose (CMC)
[14] = dose: 200.0 mg/kg/injection, schedule: Q01DX001 (ip), vehicle: carboxymethylcellulose (CMC)
[15] = dose: 400.0 mg/kg/injection, schedule: Q01DX001 (ip), vehicle: carboxymethylcellulose (CMC)

Measured: T/C

O=[N+]([O-])c1ccc2[nH]ccc2c1
inactive: [1] 98 % of control | [2] 104 % of control | [3] 102 % of control

OCCCC1CCCCN1 (configuration not stated)
inactive: [4] 100 % of control | [5] 96 % of control | [6] 88 % of control | dose: 100.0 mg/kg/injection, schedule: Q04DX003 (ip), vehicle: acetone 103 % of control

CCCCCC[N+]1(C)CC2C3C=CC(C3)C2C1 (configuration not stated)
inactive: [7] 103 % of control | [8] 97 % of control | [9] 97 % of control | dose: 75.0 mg/kg/injection, schedule: Q04DX003 (ip), vehicle: saline 92 % of control

CCC(C)N(C(C)=O)C(C)CC (configuration not stated)
inactive: dose: 25.0 mg/kg/injection, schedule: Q01DX001 (ip), vehicle: saline 107 % of control | dose: 50.0 mg/kg/injection, schedule: Q01DX001 (ip), vehicle: saline 97 % of control | [1] 100 % of control

C/C(=C(/CCO)SCCC(=O)c1ccc(Cl)cc1)N(C=O)Cc1cnc(C)nc1N
inactive: [10] 97 % of control | [11] 93 % of control | dose: 400.0 mg/kg/injection, schedule: Q04DX003 (ip), vehicle: saline 97 % of control

O=C(N/N=C/c1ccco1)C1CCCO1 (configuration not stated)
inactive: dose: 25.0 mg/kg/injection, schedule: Q01DX009 (ip), vehicle: Klucel (hydroxypropylcellulose) (HPC) 101 % of control | dose: 50.0 mg/kg/injection, schedule: Q01DX009 (ip), vehicle: Klucel (hydroxypropylcellulose) (HPC) 102 % of control | dose: 100.0 mg/kg/injection, schedule: Q01DX009 (ip), vehicle: Klucel (hydroxypropylcellulose) (HPC) 101 % of control and 114 % of control | dose: 200.0 mg/kg/injection, schedule: Q01DX009 (ip), vehicle: Klucel (hydroxypropylcellulose) (HPC) 106 % of control

C=C(Br)CNS(C)(=O)=O
inactive: dose: 6.25 mg/kg/injection, schedule: Q01DX009 (ip), vehicle: saline 106 % of control | dose: 12.5 mg/kg/injection, schedule: Q01DX009 (ip), vehicle: saline 95 % of control | [7] 98 % of control | [4] 96 % of control | [8] 104 % of control

O=NN(CCCl)C(=O)C1CCC(C(=O)N(CCCl)N=O)CC1 (configuration not stated)
inactive: dose: 0.25 mg/kg/injection, schedule: Q01DX001 (ip), vehicle: carboxymethylcellulose (CMC) 108 % of control | dose: 0.5 mg/kg/injection, schedule: Q01DX001 (ip), vehicle: carboxymethylcellulose (CMC) 117 % of control | dose: 10.0 mg/kg/injection, schedule: Q01DX001 (ip), vehicle: carboxymethylcellulose (CMC) 124 % of control | dose: 15.0 mg/kg/injection, schedule: Q01DX001 (ip), vehicle: carboxymethylcellulose (CMC) 123 % of control | dose: 30.0 mg/kg/injection, schedule: Q01DX001 (ip), vehicle: carboxymethylcellulose (CMC) 118 % of control | dose: 62.0 mg/kg/injection, schedule: Q01DX001 (ip), vehicle: carboxymethylcellulose (CMC) 87 % of control

O=C(O)c1cc(Cl)c(Cl)cc1Cl
inactive: [5] 104 % of control | [1] 93 % of control | [6] 98 % of control | [10] 100 % of control | [2] 86 % of control | [11] 102 % of control | [3] 94 % of control

FC(F)(F)C(F)(F)c1nc2nc(Cl)c(Cl)nc2[nH]1
inactive: dose: 50.0 mg/kg/injection, schedule: Q01DX009 (ip), vehicle: other 106 % of control | dose: 100.0 mg/kg/injection, schedule: Q01DX009 (ip), vehicle: other 92 % of control | dose: 100.0 mg/kg/injection, schedule: Q04DX003 (ip), vehicle: other 120 % of control | dose: 132.0 mg/kg/injection, schedule: Q04DX003 (ip), vehicle: other 94 % of control | dose: 200.0 mg/kg/injection, schedule: Q04DX003 (ip), vehicle: other 114 % of control

O=c1cc(O)nc(C(F)(F)F)[nH]1
inactive: dose: 29.0 mg/kg/injection, schedule: Q01DX Z (ip), vehicle: methylcellulose (MC) 92 % of control | dose: 44.0 mg/kg/injection, schedule: Q01DX Z (ip), vehicle: methylcellulose (MC) 96 % of control | dose: 66.0 mg/kg/injection, schedule: Q01DX Z (ip), vehicle: methylcellulose (MC) 103 % of control | dose: 100.0 mg/kg/injection, schedule: Q01DX Z (ip), vehicle: methylcellulose (MC) 100 % of control

CN(CC(=O)O)Cc1oc(CO)cc(=O)c1O
inactive: [1] 110 % of control | [2] 95 % of control | [3] 95 % of control

COc1cc(C(=O)OC2=CC(=O)c3nc(OC(=O)c4cc(OC)c(OC)c(OC)c4)ccc3C2=O)cc(OC)c1OC
inactive: [1] 93 % of control | [2] 91 % of control | [3] 95 % of control

CC1(C)N=C(N)N=C(N)N1c1ccc(C(=O)c2ccccc2)cc1
inactive: [8] 96 % of control | [9] 89 % of control

CC[Si](C)(C)c1ccc(CCN2CC2)s1
inactive: [12] 113 % of control

c1ccc(-c2nnc3ccccn23)cc1
inactive: dose: 100.0 mg/kg/injection, schedule: Q01DX001 (ip), vehicle: Klucel (hydroxypropylcellulose) (HPC) 102 % of control | dose: 200.0 mg/kg/injection, schedule: Q01DX001 (ip), vehicle: Klucel (hydroxypropylcellulose) (HPC) 106 % of control

CC(C)c1nc(-c2ccccc2)c(-c2ccccc2)[nH]1
inactive: dose: 100.0 mg/kg/injection, schedule: Q04DX003 (ip), vehicle: saline with Tween-80 93 % of control | dose: 200.0 mg/kg/injection, schedule: Q04DX003 (ip), vehicle: saline with Tween-80 98 % of control | dose: 400.0 mg/kg/injection, schedule: Q04DX003 (ip), vehicle: saline with Tween-80 93 % of control

O=c1[nH]nnc2c1ncn2C1OC(CO)C(O)C1O (configuration not stated)
inactive: dose: 100.0 mg/kg/injection, schedule: Q01DX005 (ip), vehicle: saline 102 % of control | dose: 200.0 mg/kg/injection, schedule: Q01DX005 (ip), vehicle: saline 102 % of control

CCCCCCCCCCCCSC1=NCCN1
inactive: dose: 25.0 mg/kg/injection, schedule: Q04DX003 (ip), vehicle: Klucel (hydroxypropylcellulose) (HPC) 100 % of control | dose: 45.0 mg/kg/injection, schedule: Q04DX003 (ip), vehicle: Klucel (hydroxypropylcellulose) (HPC) 95 % of control | dose: 87.5 mg/kg/injection, schedule: Q04DX003 (ip), vehicle: Klucel (hydroxypropylcellulose) (HPC) 100 % of control | dose: 88.0 mg/kg/injection, schedule: Q04DX003 (ip), vehicle: Klucel (hydroxypropylcellulose) (HPC) 103 % of control

C=CC(C)C1C(C)C(Cl)CC(Cl)C1OC(=O)c1ccccc1 (configuration not stated)
inactive: [13] 100 % of control | [12] 112 % of control | [14] 94 % of control | [15] 96 % of control

CSc1ccc(NC(=O)C(F)(F)F)cc1
inactive: [13] 97 % of control | [12] 92 % of control | [14] 97 % of control | [15] 95 % of control

CN(C)N=Nc1cc(Cl)cc(C(N)=O)c1Cl
inactive: dose: 100.0 mg/kg/injection, schedule: Q01DX001 (ip), vehicle: saline with Tween-80 106 % of control | dose: 100.0 mg/kg/injection, schedule: Q01DX009 (ip), vehicle: saline with Tween-80 103 % of control | dose: 200.0 mg/kg/injection, schedule: Q01DX001 (ip), vehicle: saline with Tween-80 101 % of control | dose: 200.0 mg/kg/injection, schedule: Q01DX009 (ip), vehicle: saline with Tween-80 121 % of control | dose: 400.0 mg/kg/injection, schedule: Q01DX001 (ip), vehicle: saline with Tween-80 119 % of control

N#CC1(C#N)C(c2ccccc2)C1(C#N)C#N
inactive: dose: 6.25 mg/kg/injection, schedule: Q01DX009 (ip), vehicle: saline with Tween-80 107 % of control | dose: 6.25 mg/kg/injection, schedule: Q04DX003 (ip), vehicle: saline sonified 102 % of control | dose: 12.5 mg/kg/injection, schedule: Q01DX009 (ip), vehicle: saline with Tween-80 105 % of control | dose: 12.5 mg/kg/injection, schedule: Q04DX003 (ip), vehicle: saline sonified 113 % of control | dose: 25.0 mg/kg/injection, schedule: Q01DX009 (ip), vehicle: saline with Tween-80 105 % of control | dose: 25.0 mg/kg/injection, schedule: Q04DX003 (ip), vehicle: saline sonified 96 % of control
